Consider 7 compounds from publication PMC9313321 (Biomedicines, 2022).

“And” between values parts separate entries of the source, which are not always exact repeats. Equal values may be shown once.

One assay has as its target T1, Aβ42 + Cu(II) fibrils (Homo sapiens, UniProt P05067).
T1 construct: Beta-amyloid protein, fragment 1-42; purchased Sigma-Aldrich
The experiment in a line: TEM assay of Aβ42 fibrils in the presence of Cu(II). The format is biochemical. Particulars: 48 h 37 °C; for Aβ42 fibril width: TEM, CAβ42 = CCu = CL = 50 µM, Aβ42 + Cu(II) 6.8 ± 0.3 nm. The method, then:
To perform the TEM assays, commercial Aβ42 purchased from Sigma-Aldrich was pre-treated with pure HFIP, a beta-sheet disruptor, to obtain homogeneous and monomeric Aβ42 [54]. Then, 222 µL of HFIP was added to 1 mg of Aβ42, after which the mixture was vortexed and aliquoted into Eppendorfs. The Eppendorfs were placed in a SpeedVac at 45 °C for 30 min until all HFIP was evaporated. Pre-treated Aβ42 was stored at −20 °C until use. To start the amyloid incubations, pre-treated Aβ42 was equilibrated at room temperature for 30 min. A solution of 5 mM was obtained by dissolution in DMSO and sonication for 5 min. Subsequently, 10 mM HCl was added to obtain a working Aβ42 solution of 200 µM. Stock solutions of Cu(II) and RIV–BIM compounds (4a–d, 5a,b and 5d) at 200 µM were prepared on the same day and working solutions of Aβ42, Aβ42 + Cu(II), Aβ42 + RIV–BIM and Aβ42 + Cu(II) + RIV–BIM (CAβ42 = CCu = CL = 50 µM) were prepared by diluting stock solutions in 10 mM HCl. Working solutions were incubated for 48 h at 37 °C before being analyzed by TEM. Samples were negatively stained with uranyl acetate 2% (w/v) and analyzed at 100 kv with a JEOL JEM 1400 Plus transmission electron microscope. Fibrils of Aβ42 alone were compared with Aβ42 + RIV–BIM fibrils, and fibrils of Aβ42 + Cu(II) were compared with Aβ42 + Cu(II) + RIV–BIM in order to evaluate the inhibition of the amyloid aggregation, and the widths and lengths of fibrils were measured for each sample. The ImageJ program was used to measure the fibrils (n = 200).
When fibrils were incubated in the presence of Cu(II) for 48 h (Figure 6), stronger amyloid elongated aggregation was evidenced. In fact, incubation with Cu(II) in the absence of RIV–BIM compounds (Figure 5a) presented higher aggregation than that corresponding to Aβ42 alone (Figure 5a). Based on the TEM images contained in Figure 6, compounds belonging to the linear series of hybrids (4a–4d) seem to exert minor effects on Cu(II)-induced Aβ42 aggregation according to the previous fluorescence data.
Fibril width for Aβ42 + Cu(II) + RIV–BIM incubations was also measured (Figure 5b). When Aβ42 was incubated with Cu(II) ((6.8 ± 0.3) nm), the amyloid fibrils suffered a width increase of 38.8%, in contrast to Aβ42 alone (Figure 5a).

Assay [1] deals with T2, Cu(II)-induced Aβ42 aggregation (Homo sapiens, UniProt P05067).
T2 construct: Beta-amyloid protein, fragment 1-42; purchased GeneCust
The experiment in a line: Inhibition of Cu(II)-induced Aβ42 aggregation (thioflavin T fluorescence). The assay is classed as biochemical. Particulars: for inhibition at 20 µM: read-out: Aβ42 Cu-Ind. Aggreg. Inhib, copper (40 μM), 20 μM inhibitor, thioflavin-T fluorescence, 37 °C 24 h. The procedure:
The inhibition of Aβ42 aggregation and Cu(II)-induced Aβ42 aggregation, carried out by the RIV–BIM hybrids, was studied using a reported method based on the fluorescence emission of thioflavin T [52, 53].
Solutions of phosphate buffer 0.215 M at pH = 8.00, Na2CO3 300 μM in distilled water, NaOH 250 mM in distilled water, glycine-NaOH 50 mM buffer at pH = 8.50 and CuCl2 240 μM in phosphate buffer were prepared. Stock solutions of […] of the RIV–BIM compounds were prepared in MeOH (with 20% DMSO). Working solutions of 240 μM of the RIV–BIM hybrids were prepared by the proper dilution of their stock solutions with phosphate buffer. A working solution of glycine-NaOH 50 mM buffer at pH = 8.50 containing 5 μM of thioflavin T (ThT) was prepared daily. Aβ42 (GeneCust) was pre-treated with 1,1,1,3,3,3-hexafluoro-2-propanol (HFIP) to obtain a solution of 0.149 mM by brief sonication and vortexing, which was kept covered overnight at room temperature. From the Aβ42 solution, aliquots of 250 μL were placed into Eppendorf tubes under ice and set to evaporate inside a hood at room temperature overnight. When the contents of the Eppendorf tubes were dried, the Aβ42 aliquots were stored at −20 °C until needed. To obtain the Aβ42 working solution, the Aβ42 aliquots were dissolved with a freshly prepared mixture of 69.5 μL of CH3CN/Na2CO3 (300 μM)/NaOH (250 mM) (48.3/48.3/3.4, v/v/v) by brief sonication and vortexing to obtain an Aβ42 solution of 531.24 μM. To this solution, 392.5 μL of phosphate buffer was added, achieving an Aβ42 working solution of 80 μM. To prepare the incubations, three replicates of Aβ42 alone (30 μL Aβ42 80 μM + 30 μL phosphate buffer), Aβ42 with RIV–BIM (30 μL Aβ42 80 μM + 10 μL RIV–BIM 240 μM + 20 μL phosphate buffer), Aβ42 with copper (30 μL Aβ42 80 μM + 10 μL CuCl2 240 μM + 20 μL phosphate buffer) and Aβ42 with copper and RIV–BIM (30 μL Aβ42 80 μM + 10 μL CuCl2 240 μM + 10 μL RIV–BIM 240 μM + 10 μL phosphate buffer) were placed in Eppendorfs. To obtain the blank solutions, a similar number of Eppendorfs, replacing Aβ42 with phosphate buffer, were prepared. Incubations were performed in a water bath at 37 °C with agitation for 24 h. Afterwards, 180 μL of glycine-NaOH 50 mM buffer at pH = 8.50 containing 5 μM of ThT was added to each Eppendorf and then they were vortexed. Finally, 200 μL of solution from each Eppendorf was placed in the wells of a microplate and fluorescence measurements were monitored using a Spectramax Gemini EM (Molecular Devices) fluorimeter with an excitation wavelength of 446 nm and an emission wavelength of 485 nm. Blank signals were subtracted from the corresponding samples. The fluorescence intensity of the Aβ42 + RIV–BIM solution was compared to that of the Aβ42 solution to obtain the inhibition of Aβ42 self-aggregation for each compound. The fluorescence intensity of the Aβ42 + Cu(II) + RIV–BIM solution was compared to that of the Aβ42 + Cu(II) solution to obtain the inhibition of the Cu(II)-induced Aβ42 aggregation for each hybrid.
The anti-amyloidogenic capacity of the compounds was assessed in vitro using the thioflavin T (ThT) method. To record fluorescence emission, excitation (446 nm) and emission (485 nm) wavelengths were used. When ThT binds to amyloid fibrils, an increase in absorbance and emission of this dye occurs with concomitant red shifts of the respective spectra. The percent of inhibition of Aβ42 aggregation is shown in Table 1, and the assays were performed in the presence of 20 μM of inhibitor. These concentration conditions were used to overcome solubility problems of some compounds in the aqueous phosphate buffer working medium. […]. […]

T2 sequence (P05067 672-713 limits assumed): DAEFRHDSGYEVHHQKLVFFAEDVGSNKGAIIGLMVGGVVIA
T1 sequence (P05067 672-713 limits assumed): as above

With `CCN(C)C(=O)Oc1cccc(NC(=O)c2ccc3nc(-c4ccccc4O)[nH]c3c2)c1` [Compound 4a, 3-(2-(2-Hydroxyphenyl)-1H-benzo[d]imidazole-6-carboxamido)phenyl Ethylmethylcarbamate], at Aβ42 + Cu(II) fibrils, the Aβ42 fibril width is reported as 4.7 nm. For the same compound, in assay [1], the inhibition at 20 µM was determined as 41.2%.
For `CCN(C)C(=O)Oc1cccc(CNC(=O)c2ccc3nc(-c4ccccc4O)[nH]c3c2)c1` [Compound 4b, 3-((2-(2-Hydroxyphenyl)-1H-benzo[d]imidazole-6-carboxamido)methyl) Phenyl Ethylmethylcarbamate], the Aβ42 fibril width on Aβ42 + Cu(II) fibrils stood at 4.8 nm. In addition, the inhibition at 20 µM in assay [1] came to 48.8%.
Turning to `CCN(C)C(=O)Oc1cccc(CCNC(=O)c2ccc3nc(-c4ccccc4O)[nH]c3c2)c1` [Compound 4c, 3-(2-(2-(2-Hydroxyphenyl)-1H-benzo[d]imidazole-6-carboxamido)ethyl) Phenylethylmethylcarbamate], the Aβ42 fibril width on Aβ42 + Cu(II) fibrils is 4.6 nm. In addition, the inhibition at 20 µM in assay [1] amounted to 22%.
Consider `CCN(C)C(=O)Oc1ccc(CCCNC(=O)c2ccc3nc(-c4ccccc4O)[nH]c3c2)cc1` [Compound 4d, 4-(3-(2-(2-Hydroxyphenyl)-1H-benzo[d]imidazole-6-carboxamido)propyl) Phenyl Ethylmethylcarbamate], for which the inhibition at 20 µM in assay [1] amounted to 21.3%.
In the case of `CCN(C)C(=O)Oc1cccc(NC(=O)c2cccc3[nH]c(-c4ccccc4O)nc23)c1` [Compound 5a, 3-(2-(2-Hydroxyphenyl)-1H-benzo[d]imidazole-4-carboxamido)phenyl Ethylmethylcarbamate], on Aβ42 + Cu(II) fibrils, the “Appearance of Aβ42 aggregation in TEM images” value (“Appearance of Aβ42 aggregation” below) is reported as “sparser amyloid aggregation”; the Aβ42 fibril width is 4.9 nm and 4.9 ± 0.2 nm. In addition, the inhibition at 20 µM in assay [1] was found to be 45.4%.
As for `CCN(C)C(=O)Oc1cccc(CNC(=O)c2cccc3[nH]c(-c4ccccc4O)nc23)c1` [Compound 5b, 3-((2-(2-Hydroxyphenyl)-1H-benzo[d]imidazole-4-carboxamido)methyl) Phenyl Ethylmethylcarbamate], on Aβ42 + Cu(II) fibrils, the “Appearance of Aβ42 aggregation” value is “sparser amyloid aggregation” and the Aβ42 fibril width is 4.1 nm. Also, the inhibition at 20 µM in assay [1] amounted to 60.8%.
Take `CCN(C)C(=O)Oc1ccc(CCCNC(=O)c2cccc3[nH]c(-c4ccccc4O)nc23)cc1` [Compound 5d, 4-(3-(2-(2-Hydroxyphenyl)-1H-benzo[d]imidazole-4-carboxamido) Propyl) Phenyl Ethyl(methyl)carbamate]: on Aβ42 + Cu(II) fibrils, the “Appearance of Aβ42 aggregation” value was “sparser amyloid aggregation” and the Aβ42 fibril width is recorded as 3.9 nm. For the same compound, the “Aβ42 Cu-Ind. Aggreg. Inhib” value in assay [1] (copper (40 μM), 20 μM inhibitor, thioflavin-T fluorescence, 37 °C 24 h) turned out to be 40.3%. Also, in assay [1], the inhibition at 20 µM lay within 41.2 to 60.8%.
